# Test results reported in patent publication US20180256673A1, “METHODS FOR TREATING FUNGAL INFECTIONS” (priority 2015, published 2018).
# Like-named read-outs stand apart in the source and are kept apart here. Starred links: 1 amine or outer side, 2 acyl side, 3 side chain; linkers in the order of their positions; H or OH if unused. Positions of bridges follow the written chain, without caps; N, C: chain ends. Non-standard residues stand in square brackets, D forms with d. Residues, ends and D or L forms follow the SMILES beside them. *: point of attachment. hTyr(3S-OH,4S-OH,3'-OSO3H) = N[C@H](C(=O)O)[C@H](O)[C@@H](O)c1ccc(O)c(OS(=O)(=O)O)c1; Orn(4R-OH,5R-OH) = O=C([C@H](C[C@@H](O)[C@@H](O)N[*:3])N[*:1])[*:2]; Pro(3S-OH,4S-Me) = C[C@H]1CN[C@H](C(=O)O)[C@H]1O; X1 = CCCCCOc1ccc(-c2cc(-c3ccc(C(=O)*)cc3)no2)cc1; Gln(3R-OH) = NC(=O)C[C@@H](O)[C@H](N)C(=O)O; Hyp = O=C(O)[C@@H]1C[C@@H](O)CN1
# Columns and labels:
# [1] = system: C. glabrata vaginal isolates; assay: Susceptibility testing of VVC clinical isolates at pH 7 and 4 (CLSI M27-A3); assay type: cell-based, Candida glabrata; conditions: for MIC90: Nakaseomyces glabratus
# [2] = system: C. tropicalis vaginal isolates; assay: as above; assay type: cell-based; conditions: Candida tropicalis
# [3] = system: Candida albicans; assay: Broth microdilution of invasive fungal isolates (CLSI M27-A3/M38-A2); assay type: cell-based
# [4] = system: Candida glabrata; assay: microbe, parasite or virus in culture; assay type: cell-based
# [5] = system: Candida parapsilosis; assay: Broth microdilution of invasive fungal isolates (CLSI M27-A3/M38-A2); assay type: cell-based
# [6] = system: Candida tropicalis; assay: as above; assay type: cell-based
# [7] = system: Candida krusei; assay: as above; assay type: cell-based
# [8] = system: Candida dubliniensis; assay: as above; assay type: cell-based
# [9] = system: Candida orthopsilosis; assay: as above; assay type: cell-based
# [10] = system: Cryptococcus neoformans var. grubii; assay: as above; assay type: cell-based
# [11] = system: azole-resistant Candida albicans R357 strain; assay: microbe, parasite or virus in culture; assay type: cell-based
smiles,measurement,setting,value
"CCCCCOc1ccc(-c2cc(-c3ccc(C(=O)N[C@H]4C[C@@H](O)[C@@H](O)NC(=O)[C@@H]5[C@@H](O)[C@@H](C)CN5C(=O)[C@H]([C@H](O)CC(N)=O)NC(=O)[C@H]([C@H](O)[C@@H](O)c5ccc(O)c(OS(=O)(=O)O)c5)NC(=O)[C@@H]5C[C@@H](O)CN5C(=O)[C@H]([C@@H](C)O)NC4=O)cc3)no2)cc1 [MCF, micafungin] (X1-[Orn(4R-OH,5R-OH)]T[Hyp][hTyr(3S-OH,4S-OH,3'-OSO3H)][Gln(3R-OH)][Pro(3S-OH,4S-Me)]; lactam 1-C)",MIC90,"[1]; 24 h, pH 4",0.016 µg/mL
same,MIC90,"[1]; 24 h, pH 7",0.008 µg/mL
same,MIC90,"[1]; 48 h, pH 4",0.03 µg/mL
same,MIC90,"[1]; 48 h, pH 7",0.016 µg/mL
same,MIC90,"[2]; 24 h, pH 4",0.06 µg/mL
same,MIC90,"[2]; 24 h, pH 7",0.016 µg/mL
same,MIC90,"[2]; 48 h, pH 4",0.06 µg/mL
same,MIC90,"[2]; 48 h, pH 7",0.03 µg/mL
same,Cumulative % of isolates inhibited at MIC 0.015 μg/mL,[3]; 251 isolates,(74.9) %
same,Cumulative % of isolates inhibited at MIC 0.03 μg/mL,[3]; 251 isolates,(100.0) %
same,Cumulative % of isolates inhibited at MIC ≤0.008 μg/mL,[3]; 251 isolates,(6.8) %
same,Number of isolates inhibited at MIC 0.015 μg/mL,[3]; 251 isolates,171
same,Number of isolates inhibited at MIC 0.03 μg/mL,[3]; 251 isolates,63
same,Number of isolates inhibited at MIC ≤0.008 μg/mL,[3]; 251 isolates,17
same,MIC50,[3]; Candida albicans,0.015 µg/mL
same,MIC90,[3]; Candida albicans,0.03 µg/mL
same,Cumulative % of isolates inhibited at MIC 0.015 μg/mL,[4],(74.0) %
same,Cumulative % of isolates inhibited at MIC 0.03 μg/mL,[4],(95.0) %
same,Cumulative % of isolates inhibited at MIC 0.06 μg/mL,[4],(95.0) %
same,Cumulative % of isolates inhibited at MIC 0.12 μg/mL,[4],(95.0) %
same,Cumulative % of isolates inhibited at MIC 0.25 μg/mL,[4],(95.0) %
same,Cumulative % of isolates inhibited at MIC 0.5 μg/mL,[4],(95.0) %
same,Cumulative % of isolates inhibited at MIC 1 μg/mL,[4],(95.0) %
same,Cumulative % of isolates inhibited at MIC 2 μg/mL,[4],(98.0) %
same,Cumulative % of isolates inhibited at MIC 4 μg/mL,[4],(100.0) %
same,Cumulative % of isolates inhibited at MIC ≤0.008 μg/mL,[4],(1.0) %
same,MIC according to CLSI method,[4],4 µg/mL
same,Number of isolates inhibited at MIC 0.015 μg/mL,[4],73
same,Number of isolates inhibited at MIC 0.03 μg/mL,[4],21
same,Number of isolates inhibited at MIC 0.06 μg/mL,[4],0
same,Number of isolates inhibited at MIC 0.12 μg/mL,[4],0
same,Number of isolates inhibited at MIC 0.25 μg/mL,[4],0
same,Number of isolates inhibited at MIC 0.5 μg/mL,[4],0
same,Number of isolates inhibited at MIC 1 μg/mL,[4],0
same,Number of isolates inhibited at MIC 2 μg/mL,[4],3
same,Number of isolates inhibited at MIC 4 μg/mL,[4],2
same,Number of isolates inhibited at MIC ≤0.008 μg/mL,[4],1
same,MIC50,"[4]; Nakaseomyces glabratus, read-out: MIC50",0.015 µg/mL
same,MIC90,"[4]; Nakaseomyces glabratus, read-out: MIC90",0.03 µg/mL
same,MIC,"[4]; Nakaseomyces glabratus, read-out: MIC according to CLSI method",2 µg/mL
same,MIC,"[4]; Nakaseomyces glabratus, read-out: MIC results",2 to 4 µg/mL
same,Cumulative % of isolates inhibited at MIC 0.5 μg/mL,[5]; 92 isolates,(10.9) %
same,Cumulative % of isolates inhibited at MIC 1 μg/mL,[5]; 92 isolates,(72.8) %
same,Cumulative % of isolates inhibited at MIC 2 μg/mL,[5]; 92 isolates,(100.0) %
same,Number of isolates inhibited at MIC 0.5 μg/mL,[5]; 92 isolates,10
same,Number of isolates inhibited at MIC 1 μg/mL,[5]; 92 isolates,57
same,Number of isolates inhibited at MIC 2 μg/mL,[5]; 92 isolates,25
same,MIC50,[5]; Lodderomyces parapsilosis,1 µg/mL
same,MIC90,[5]; Lodderomyces parapsilosis,2 µg/mL
same,Cumulative % of isolates inhibited at MIC 0.015 μg/mL,[6]; 51 isolates,(31.4) %
same,Cumulative % of isolates inhibited at MIC 0.03 μg/mL,[6]; 51 isolates,(84.3) %
same,Cumulative % of isolates inhibited at MIC 0.06 μg/mL,[6]; 51 isolates,(100.0) %
same,Cumulative % of isolates inhibited at MIC ≤0.008 μg/mL,[6]; 51 isolates,(2.0) %
same,Number of isolates inhibited at MIC 0.015 μg/mL,[6]; 51 isolates,15
same,Number of isolates inhibited at MIC 0.03 μg/mL,[6]; 51 isolates,27
same,Number of isolates inhibited at MIC 0.06 μg/mL,[6]; 51 isolates,8
same,Number of isolates inhibited at MIC ≤0.008 μg/mL,[6]; 51 isolates,1
same,MIC50,[6]; Candida tropicalis,0.03 µg/mL
same,MIC90,[6]; Candida tropicalis,0.06 µg/mL
same,Cumulative % of isolates inhibited at MIC 0.06 μg/mL,[7]; 16 isolates,(50.0) %
same,Cumulative % of isolates inhibited at MIC 0.12 μg/mL,[7]; 16 isolates,(100.0) %
same,Number of isolates inhibited at MIC 0.06 μg/mL,[7]; 16 isolates,8
same,Number of isolates inhibited at MIC 0.12 μg/mL,[7]; 16 isolates,8
same,MIC50,[7]; Pichia kudriavzevii,0.06 µg/mL
same,MIC90,[7]; Pichia kudriavzevii,0.12 µg/mL
same,Cumulative % of isolates inhibited at MIC 0.015 μg/mL,[8]; 11 isolates,(27.3) %
same,Cumulative % of isolates inhibited at MIC 0.03 μg/mL,[8]; 11 isolates,(100.0) %
same,Number of isolates inhibited at MIC 0.015 μg/mL,[8]; 11 isolates,3
same,Number of isolates inhibited at MIC 0.03 μg/mL,[8]; 11 isolates,8
same,MIC50,[8]; Candida dubliniensis,0.03 µg/mL
same,MIC90,[8]; Candida dubliniensis,0.03 µg/mL
same,Cumulative % of isolates inhibited at MIC 0.12 μg/mL,[9]; 10 isolates,(20.0) %
same,Cumulative % of isolates inhibited at MIC 0.25 μg/mL,[9]; 10 isolates,(40.0) %
same,Cumulative % of isolates inhibited at MIC 0.5 μg/mL,[9]; 10 isolates,(70.0) %
same,Cumulative % of isolates inhibited at MIC 1 μg/mL,[9]; 10 isolates,(100.0) %
same,Number of isolates inhibited at MIC 0.12 μg/mL,[9]; 10 isolates,2
same,Number of isolates inhibited at MIC 0.25 μg/mL,[9]; 10 isolates,2
same,Number of isolates inhibited at MIC 0.5 μg/mL,[9]; 10 isolates,3
same,Number of isolates inhibited at MIC 1 μg/mL,[9]; 10 isolates,3
same,MIC50,[9]; Lodderomyces orthopsilosis,0.5 µg/mL
same,MIC90,[9]; Lodderomyces orthopsilosis,1 µg/mL
same,Cumulative % of isolates inhibited at MIC >8 μg/mL,[10]; 19 isolates,(100.0) %
same,Number of isolates inhibited at MIC >8 μg/mL,[10]; 19 isolates,19
same,MIC50,[10]; Cryptococcus neoformans,8 µg/mL
same,MIC90,[10]; Cryptococcus neoformans,8 µg/mL
"OC(Cn1cncn1)(Cn1cncn1)c1ccc(F)cc1F [FLU, fluconazole]",Susceptibility (CLSI),[11]; C. albicans R357,R
same,MIC,[11]; Candida albicans,> 64 µg/mL
same,Number of isolates at MIC 2 μg/mL,"[1]; 21 VVC isolates, 24 h, pH 4",5
same,Number of isolates at MIC 4 μg/mL,"[1]; 21 VVC isolates, 24 h, pH 4",3
same,Number of isolates at MIC ≥4 μg/mL,"[1]; 21 VVC isolates, 24 h, pH 4",13
same,Number of isolates at MIC 0.5 μg/mL,"[1]; 21 VVC isolates, 24 h, pH 7",4
same,Number of isolates at MIC 1 μg/mL,"[1]; 21 VVC isolates, 24 h, pH 7",2
same,Number of isolates at MIC 2 μg/mL,"[1]; 21 VVC isolates, 24 h, pH 7",5
same,Number of isolates at MIC 4 μg/mL,"[1]; 21 VVC isolates, 24 h, pH 7",2
same,Number of isolates at MIC ≥4 μg/mL,"[1]; 21 VVC isolates, 24 h, pH 7",8
same,Number of isolates at MIC 2 μg/mL,"[1]; 21 VVC isolates, 48 h, pH 4",1
same,Number of isolates at MIC 4 μg/mL,"[1]; 21 VVC isolates, 48 h, pH 4",2
same,Number of isolates at MIC ≥4 μg/mL,"[1]; 21 VVC isolates, 48 h, pH 4",18
same,Number of isolates at MIC 1 μg/mL,"[1]; 21 VVC isolates, 48 h, pH 7",3
same,Number of isolates at MIC 2 μg/mL,"[1]; 21 VVC isolates, 48 h, pH 7",4
same,Number of isolates at MIC 4 μg/mL,"[1]; 21 VVC isolates, 48 h, pH 7",2
same,Number of isolates at MIC ≥4 μg/mL,"[1]; 21 VVC isolates, 48 h, pH 7",12
same,MIC90,"[1]; 21 isolates, pH 4, 24 h, read-out: MIC90",64 µg/mL
same,MIC90,"[1]; 21 isolates, pH 4, 48 h, read-out: MIC90",> 64 µg/mL
same,MIC90,"[1]; 21 isolates, pH 7, 24 h, read-out: MIC90",16 µg/mL
same,MIC90,"[1]; 21 isolates, pH 7, 48 h, read-out: MIC90",> 64 µg/mL
same,MIC90,"[2]; 13 isolates, pH 4, 24 h, read-out: MIC90",8 µg/mL
same,MIC90,"[2]; 13 isolates, pH 4, 48 h, read-out: MIC90",> 64 µg/mL
same,MIC90,"[2]; 13 isolates, pH 7, 24 h, read-out: MIC90",2 µg/mL
same,MIC90,"[2]; 13 isolates, pH 7, 48 h, read-out: MIC90",64 µg/mL
same,% of isolates with fluconazole resistance,[3]; CLSI breakpoints,2.0%
same,% of isolates with fluconazole resistance,[5]; CLSI breakpoints,4.3%
same,% of isolates with fluconazole resistance,[6]; CLSI breakpoints,2.0%
